Key:
Test in all cases: relative viability (nuclei count vs DMSO), 5 days (fraction); higher = more cells survive
CUDC-101 + Phenformin = compound: C#Cc1cccc(Nc2ncnc3cc(OC)c(OCCCCCCC(=O)NO)cc23)c1 [CUDC-101] + N=C(N)NC(=N)NCCc1ccccc1 [Phenformin] (partner 250 µM)
How it was run: (§1)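 Lung cancer cell lines, seeded in 1536-well plates, were treated the following day by pin tool with a single drug or with five library-drug doses (not always all listed) in √10 steps on top of a fixed anchor-drug dose. Cells were fixed and nuclei stained in one step after 5 days, and nuclei were counted. Relative viability is the nuclei count for treated wells divided by that for vehicle wells, reported as medians of duplicate plates.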

CUDC-101 + Pemetrexed = compound: C#Cc1cccc(Nc2ncnc3cc(OC)c(OCCCCCCC(=O)NO)cc23)c1 [CUDC-101] + Nc1nc2[nH]cc(CCc3ccc(C(=O)N[C@@H](CCC(=O)O)C(=O)O)cc3)c2c(=O)[nH]1 [Pemetrexed] (partner 0.2 µM)
How it was run: as §1

[1] = compound: C1=CC=C2C(=C1)N=C(S2)C(C#N)C3=NC(=NC=C3)NCCC4=CN=CC=C4 + C[C@@H](Oc1cc(-c2cnn(C3CCNCC3)c2)cnc1N)c1c(Cl)ccc(F)c1Cl [Crizotinib] (partner 1 µM)
How it was run: as §1

NVP-TAE684 + Dasatinib = compound: COc1cc(N2CCC(N3CCN(C)CC3)CC2)ccc1Nc1ncc(Cl)c(Nc2ccccc2S(=O)(=O)C(C)C)n1 [NVP-TAE684] + Cc1nc(Nc2ncc(C(=O)Nc3c(C)cccc3Cl)s2)cc(N2CCN(CCO)CC2)n1 [Dasatinib] (partner 0.075 µM)
How it was run: as §1

Cell Line	relative viability (CUDC-101 + Phenformin; first compound 0.01 µM)	relative viability (CUDC-101 + Phenformin; first compound 0.03162 µM)	relative viability (CUDC-101 + Phenformin; first compound 0.1 µM)	relative viability (CUDC-101 + Phenformin; first compound 0.3162 µM)	relative viability (CUDC-101 + Phenformin; first compound 1 µM)	relative viability (CUDC-101 + Pemetrexed; first compound 0.01 µM)	relative viability (CUDC-101 + Pemetrexed; first compound 0.03162 µM)	relative viability (CUDC-101 + Pemetrexed; first compound 0.1 µM)	relative viability (CUDC-101 + Pemetrexed; first compound 0.3162 µM)	relative viability (CUDC-101 + Pemetrexed; first compound 1 µM)	relative viability ([1]; first compound 0.005 µM)	relative viability ([1]; first compound 0.01581 µM)	relative viability ([1]; first compound 0.05 µM)	relative viability ([1]; first compound 0.1581 µM)	relative viability ([1]; first compound 0.5 µM)	relative viability (NVP-TAE684 + Dasatinib; first compound 0.2 µM)	relative viability (NVP-TAE684 + Dasatinib; first compound 0.6325 µM)	relative viability (NVP-TAE684 + Dasatinib; first compound 2 µM)
NCI-H650	0.453	0.475	0.465	0.385	0.38	1.02	0.916	1	0.904	0.803	0.484	0.67	0.568	0.672	0.704	0.513	0.376	0.262
LXF-289	0.536	0.523	0.55	0.493	0.408	0.881	0.888	0.873	0.904	0.805	0.761	0.798	0.831	0.869	0.798	0.191	0.141	0.111
CAL-12T	0.67	0.563	0.617	0.616	0.513	1.45	1.13	1.19	1.14	1.18	0.48	0.561	0.743	0.766	0.37	0.227	0.111	0.0731
SK-MES-1	0.705	0.679	0.705	0.606	0.57	0.896	0.946	0.922	0.972	0.724	1.11	1.12	0.99	1.14	0.902	0.317	0.159	0.242
SW 1573	0.407	0.356	0.484	0.371	0.304	0.86	0.97	1.08	0.96	0.459	0.753	0.809	0.722	0.793	0.785	0.236	0.227	0.0788
NCI-H1975	0.415	0.401	0.416	0.425	0.378	0.27	0.283	0.296	0.277	0.313	0.766	1.18	0.954	1.14	0.667	0.361	0.225	0.186
NCI-H647	0.564	0.483	0.574	0.418	0.21	0.177	0.167	0.199	0.194	0.165		1	0.89	1.38	0.874	0.0949	0.103	0.0648
NCI-H322M	0.786	0.69	0.64	0.586	0.438	0.636	0.604	0.585	0.569	0.453	0.845	0.85	0.953	0.891	0.796	0.241	0.223	0.246

From the supplement of paper PMC10307832
